{"source": "patent US20090082304A1", "about": "“Methods of Treating Hematological Malignancies with Nucleoside Analog Drugs” (NORTHWESTERN UNIVERSITY, priority 2004, published 2009)", "key": {"[1]": {"test_system": "MKK3/6", "experiment": "Immunoblot of phospho-MKK3/6 in MM.1 S cells", "assay_type": "cell-based", "details": "10 μM", "experimental": "(§1) 5×10^6 were cells treated with 10 μM 8-NH2-Ado for the indicated times and harvested. Cell pellets were washed with cold phosphate-buffered saline (PBS; 8.1 g NaCl, 1.14 g Na2HPO4, 0.22 g KCl, and 0.25 g/L KH2PO4) and incubated with lysis buffer (50 mM HEPES, 150 mM NaCl, 1.5 mM MgCl2, 1 mM EDTA pH 8.0, 100 mM NaFI, 10 mM Na Pyrophosphate, 500 μM PMSF, 0.5% Triton X-100, 10% glycerol) at 4° C. for one hour. Lysates were centrifuged at 4° C. for 1 minute at 9000×g, and the supernatants were collected and stored at −20° C. Protein concentration was determined by Bio-Rad protein assay (BioRad Laboratories, Hercules, Calif.). Protein, at a concentration of 30 μg, was mixed with sample buffer (125 mM Tris, pH 6.8, 4% SDS, 20% glycerol, 100 mM Dithiothreitol (DTT), and 0.05% bromophenol blue), and fractionated on a pre-cast 8-16% Tris-Glycine gel (Invitrogen/Novex, Carlsbad, Calif.). Proteins were then transferred to a Polyvinylidene Fluoride (PVDF) membrane (Immobilon-P, Millipore, Bedford, Mass.): Following protein transfer, membranes were blocked with 5% non-fat milk in PBS-T (PBS with 0.1% Tween), incubated with the primary antibody overnight at 4° C. and subsequently with horseradish peroxidase linked secondary antibody (Amersham, Arlington Heights, Ill.). […]"}, "[2]": {"test_system": "ATF-2", "experiment": "Immunoblot of phospho-ATF-2 in MM.1 S cells", "assay_type": "cell-based", "details": "10 μM, by 2 hours", "experimental": "as §1"}, "[3]": {"test_system": "PDK1", "experiment": "Immunoblot of PDK1 (total and phosphorylated) in MM.1 S cells", "assay_type": "cell-based", "details": "10 μM, 0-6 hours", "experimental": "as §1"}, "[4]": {"test_system": "total protein levels of the signaling proteins in myeloma cells", "experiment": "Immunoblot reprobe with total protein antibodies", "assay_type": "cell-based", "experimental": "5×10^6 were cells treated with 10 μM 8-NH2-Ado for the indicated times and harvested. Cell pellets were washed with cold phosphate-buffered saline (PBS; 8.1 g NaCl, 1.14 g Na2HPO4, 0.22 g KCl, and 0.25 g/L KH2PO4) and incubated with lysis buffer (50 mM HEPES, 150 mM NaCl, 1.5 mM MgCl2, 1 mM EDTA pH 8.0, 100 mM NaFI, 10 mM Na Pyrophosphate, 500 μM PMSF, 0.5% Triton X-100, 10% glycerol) at 4° C. for one hour. Lysates were centrifuged at 4° C. for 1 minute at 9000×g, and the supernatants were collected and stored at −20° C. Protein concentration was determined by Bio-Rad protein assay (BioRad Laboratories, Hercules, Calif.). Protein, at a concentration of 30 μg, was mixed with sample buffer (125 mM Tris, pH 6.8, 4% SDS, 20% glycerol, 100 mM Dithiothreitol (DTT), and 0.05% bromophenol blue), and fractionated on a pre-cast 8-16% Tris-Glycine gel (Invitrogen/Novex, Carlsbad, Calif.). Proteins were then transferred to a Polyvinylidene Fluoride (PVDF) membrane (Immobilon-P, Millipore, Bedford, Mass.): Following protein transfer, membranes were blocked with 5% non-fat milk in PBS-T (PBS with 0.1% Tween), incubated with the primary antibody overnight at 4° C. and subsequently with horseradish peroxidase linked secondary antibody (Amersham, Arlington Heights, Ill.). Blots were developed using ECL Plus Chemiluminescent Western Blotting Detection reagent (Amersham, Arlington Heights, Ill.) and the signal was visualized with X-ray film (Hyperfilm, Amersham, Arlington Heights, Ill.). For reprobing purposes, blots were stripped using Restore Western Blot Stripping Buffer from Pierce Biotechnology (Rockford, Ill.). Phospho-MKK3/6 (Ser189/207), phospho-p38 (Thr180/Tyr182), phospho-ATF-2 (Thr69/71), phospho-c-Raf (Ser259), phospho-MEK1/2 (Ser217/221), total MEK1/2, phospho-ERK1/2 (Thr202/Tyr204), total ERK1/2, phospho-p90RSK (Ser380), total RSK, phospho-PDK1 (Ser241), total PDKI, phospho-PTEN (Ser380), total PTEN, phospho-Akt (Ser473), total Akt, phospho-GSK-3β (Ser9), total GSK-3β, phospho-FKHRLI (Thr32)/-FKHR (Thr24), phospho-FKHR (Ser256) primary antibodies were obtained from Cell Signaling Technology (Beverly, Mass.). Total MKK3, total MKK6, total p38, total ATF-2, total c-Raf, total FKHR, total FKHRLI, phospho-JNK and total JNK were purchased from Santa Cruz Biotechnology (Santa Cruz, Calif.). Caspase 3, caspase 9, and PARP antibodies were obtained from Pharmingen (San Diego, Calif.) and anti-MKP1 from Upstate (Lake Placid, N.Y.). Anti-caspase 8 mouse serum was a generous gift of Dr. Marcus Peter (University of Chicago).\nMM.1 S cells were exposed to 10 μM 8-NH2-Ado for 0, 0.5, 1, 2, 4 and 6 hours, after which cells were lysed as previously (Example 2). 30 μg of protein was separated by gel electrophoresis, transferred to PVDF membrane, and probed with phosphorylation-specific antibodies to MKK3/6, p38 MAPK, ATF-2, MEK1/2, ERK1/2, p90RSK, JNK1, PDK1, Akt, FKHRL1 and GSK-3β. […] FIGS. 1A, 1B, 1C and 1D provide the results of the blots."}, "[5]": {"test_system": "MM cells", "assay_type": "cell-based", "experimental": "The MTS assay was performed as described previously (Krett et al., Clin Cancer Res. 3: 1781-1787). Briefly, MM cells were cultured into 96 well dishes at a concentration of 25,000 cells per well and incubated with the 8-NH2-Ado for 72 hours. Cell proliferation was determined using the MTS Cell Titer Aqueous assay (Promega, Madison, Wis.), which measured the conversion of a tetrazolium compound into formazan by a mitochondrial dehydrogenase enzyme in live cells. The quantity of formazan product as measured by the amount of 490 nm absorbance is directly proportional to the number of living cells in culture. The data were expressed as the percentage of formazan produced by the cells treated with the control medium in the same assay."}, "[6]": {"test_system": "MM cells", "details": "cited from earlier work"}}, "note": "Like-named read-outs stand apart in the source and are kept apart here.", "data": [{"smiles": "Nc1ncnc2c1nc(N)n2[C@@H]1O[C@H](CO)[C@@H](O)[C@H]1O", "note": "[8-NH2-Ado, 8-amino-adenosine]", "values": [{"measurement": "Phosphorylated MKK3/6 protein levels", "setting": "[1]; by 2 hours", "result": "decrease significantly"}, {"measurement": "Phosphorylated MKK3/6 protein levels", "setting": "[1]; by 6 hours", "result": "negligible"}, {"measurement": "levels of phosphorylated ATF-2", "setting": "[2]", "result": "falling considerably"}, {"measurement": "Total and phosphorylated levels of PDK1", "setting": "[3]", "result": "remain unchanged"}, {"measurement": "Total protein levels of the p38 MAPK module (MKK3/6, p38, ATF-2)", "setting": "[4]; MM.1 S cells, 10 μM, 0-6 hours", "result": "remain unchanged"}, {"measurement": "total ERK1/2 levels", "setting": "[4]; MM.1 S cells, 10 μM, 0-6 hours", "result": "remain unchanged"}, {"measurement": "total MEK1/2 protein levels", "setting": "[4]; MM.1 S cells, 10 μM, 0-6 hours", "result": "do not change"}, {"measurement": "total p90RSK protein levels", "setting": "[4]; MM.1 S cells, 10 μM, 0-6 hours", "result": "unaffected"}, {"measurement": "total protein levels of Forkhead family members", "setting": "[4]; MM.1 S cells, 10 μM, 0-6 hours", "result": "do not change"}, {"measurement": "total p38 levels", "setting": "[4]; RPMI-8226, MDR10V and MM.1 R cells", "result": "remain unchanged"}, {"measurement": "cytotoxicity", "setting": "[5]", "result": "cytotoxic"}, {"measurement": "effect on normal versus malignant cells", "setting": "[5]", "result": "differential effect"}, {"measurement": "cytotoxicity", "setting": "[6]", "result": "affected by the cytotoxic ability"}]}]}
